Laboratory results: the supplement of paper PMC8837787

Test system: Saccharomyces cerevisiae ABC16-Green Monster
Experiment: growth inhibition at single dose (up to 150 µM), below the 70% cut-off for dose-response; higher = more potent
Conditions: 18 h; 30 °C; YPD
How it was run: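 Values are percent growth inhibition of drug-sensitive S. cerevisiae ABC16-Green Monster cells. Cells grown overnight in YPD at 30 °C were diluted to log phase (OD600 0.1–0.2), and each library compound was added at a single dose of 150 µM to 200 µl culture per well in 96-well plates, in biological duplicates, beside untreated cultures. OD600 was read at 0 h and after 18 h at 30 °C, and compounds under 70% in both replicates were not taken to dose-response.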

Row | Compound | growth inhibition at single dose [%]
1 | O=C(OCc1ccccc1)N1CCC(c2cc(-c3ccncc3)c(-c3ccc(F)cc3)[nH]2)CC1 | < 70
2 | O=C(Nc1ccc(Cl)cc1)Nc1nnc(CSCc2ccc(Cl)cc2)s1 | < 70
3 | COc1cccc(NC(=O)[C@H](C(C)C)n2c(=O)[nH]c3ccccc3c2=O)c1 | < 70
4 | Cc1cc(C(=O)Cn2c(CO)nc3ccccc32)c(C)n1Cc1ccco1 | < 70
5 | O=C(NC1CCN(Cc2ccccc2)CC1)c1cc(-c2cccnc2)nc2ccc(Cl)cc12 | < 70
6 | O=C(c1c[nH]c2ccccc12)C(c1ccccc1)N1CCN(CC(=O)N2CCCC2)CC1 (stereo not given) | < 70
7 | N#Cc1nc(-c2ccccc2)oc1S(=O)(=O)c1ccc(Cl)cc1 | < 70
8 | Cn1cc(/C=C/C(=O)Nc2ncc(Cc3ccccc3)s2)cn1 | < 70
9 | CNc1snc(C)c1C(=O)NCc1ccc(COCC(F)(F)F)cc1 | < 70
10 | CC1CCCCN1CCCNC(=O)c1ccc2c(c1)sc1nc(-c3ccc(F)cc3)cn12 (stereo not given) | < 70
11 | O=C(Nc1ccc2c(c1)OC1(CCCCC1)O2)c1ccc[nH]c1=S | < 70
12 | CCOc1ccc(S(=O)(=O)CC2=NCCc3cc(OC)c(OC)cc32)cc1 | < 70
13 | CCOc1c(Cl)cc(CNCC(O)c2ccccc2)cc1OC (stereo not given) | < 70
14 | CCCCn1c(C(C)Oc2ccc(Cl)cc2Cl)nc2cc(S(N)(=O)=O)ccc21 (stereo not given) | < 70
15 | CC(=O)C1C2C(=O)N(C(C)(C)C)C(=O)C2C2C=Cc3ccc4cccnc4c3N21 (stereo not given) | < 70
16 | Cc1cccc2nc(C(=O)Nc3ccc4c(c3)nc3n4CCCCC3)cn12 | < 70
17 | O=C(CCc1ccccc1)c1ccccc1OCC(O)CN1CCCCC1 (stereo not given) | < 70
18 | COc1cc(NC(=O)Cc2nn(C)c(=O)c3ccccc23)ccc1Cl | < 70
19 | CN(C)Cc1nc(=O)c2c([nH]1)-c1ccccc1CC2(C)C | < 70
20 | CC(=O)NC(C)CCc1ccc(-c2csc(-c3ccc(NC(=O)C4CC4)cc3)n2)cc1 (stereo not given) | < 70
21 | Cc1c(C)c(C)c(S(=O)(=O)N2CCN(C(C)C(=O)NC3CC3)CC2)c(C)c1C (stereo not given) | < 70
22 | CC(C)NS(=O)(=O)c1cccc(CNc2ncnc3ccccc23)c1 | < 70
23 | CCNC(=O)C(C)Nc1nc(-c2cccnc2)nc2sc(C)c(C)c12 (stereo not given) | < 70

Row | Compound | growth inhibition at single dose [%]
24 | CC(C)(C)OC(=O)N1CCN(c2cc(-c3ccc(Oc4ccccc4)cc3)n[nH]2)CC1 | < 70
25 | O=C(Nc1ncccc1O)c1ccc(-n2ccnc2)cc1 | < 70
26 | CCc1sc(C(=O)Nc2cnc3ccccc3c2)cc1C | < 70
27 | Cc1ccc(/C(C#N)=C/c2ccc(N(C)C)cc2)cc1 | < 70
28 | CCOC(=O)C1(Cc2ccccc2)CCN(Cc2cccc(OC)c2O)CC1 | < 70
29 | CCc1ccc(CNCC(O)c2ccccc2)cc1 (stereo not given) | < 70
30 | COc1cccc(-c2nn(C)c3sc(C(=O)NCCN4CCN(c5ccccc5F)CC4)cc23)c1 | < 70
31 | COc1ccc(C2=C(c3ccc(OC)cc3)C3(c4ccccc4)C(=O)C2(c2ccccc2)C2C(=O)N(c4ccc(C)cc4)C(=O)C23)cc1 (stereo not given) | < 70
32 | Cc1cnc(NC(=O)c2ccc(N(C)C3CCCCC3)cc2)s1 | < 70
33 | CCOc1ccccc1CNC(=O)C1c2ccccc2C(=O)N(CC(C)C)C1c1cccs1 (stereo not given) | < 70
34 | CC(C)(C)c1ccc(C(=O)Nc2ncccc2O)cc1 | < 70
35 | COc1cccc(Nc2nc(N)c3ccccc3n2)c1 | < 70
36 | c1cncc(NCc2ccc(-c3cc4ccncc4cc3OC3CCNCC3)s2)c1 | < 70
37 | O=S(=O)(c1ccc(Cl)cc1)N1CCN(C(=S)NCc2ccco2)CC1 | < 70
38 | CCN(CC)CCn1c(=N)n(CC(O)c2ccc(Cl)c(Cl)c2)c2ccccc21 (stereo not given) | < 70
39 | Cc1nn2c(=O)c(Cc3ccccc3)c(C)[nH]c2c1-c1ccc(F)cc1 | < 70
40 | Cc1ccc(C)c(S(=O)(=O)N2CCN(C(=O)c3[nH]nc4ccccc34)CC2)c1 | < 70
41 | CC(Nc1ncnc2sccc12)c1ccc(F)cc1 (stereo not given) | < 70
42 | CC(C)NC(=O)N1CCCC(C(=O)Nc2nc3ccccc3[nH]2)C1 (stereo not given) | < 70
43 | Oc1ccc2ccccc2c1CNc1nc2ccccc2[nH]1 | < 70
44 | CCCCNc1nc(NC(C)(C)C)nc(NC(C)(C)C)n1 | < 70
45 | Cc1[nH]c2ccc(F)cc2c(=O)c1I | < 70
